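How tested: cells in 96-well plates exposed to compound for 48 hours at five concentrations. TGI is the concentration that stops growth completely.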 Where a SMILES comes first, the peptide text is derived from it.
Columns and labels:
Experiment in all cases: inhibition of tumour cell growth, NCI panel, 48 h
[1] = system: 786-0 renal
[2] = system: A498 renal
[3] = system: A549 NSCLC
[4] = system: ACHN renal
[5] = system: BT-549 breast
[6] = system: CAKI-1 renal
[7] = system: CCRF-CEM leukemia
[8] = system: COLO 205 colon
[9] = system: DU-145 prostate
[10] = system: EKVX NSCLC
[11] = system: HCT-116 colon
[12] = system: HCT-15 colon
[13] = system: HL-60(TB) leukemia
[14] = system: HOP-62 NSCLC
[15] = system: HOP-92 NSCLC
[16] = system: HS 578T breast
[17] = system: HT29 colon
[18] = system: IGROV1 ovarian
[19] = system: K-562 leukemia
[20] = system: KM12 colon
[21] = system: LOX IMVI melanoma
[22] = system: M14 melanoma
[23] = system: MALME-3M melanoma
[24] = system: MCF7 breast
[25] = system: MDA-MB-231 breast
[26] = system: MDA-MB-435
[27] = system: MDA-N
[28] = system: MOLT-4 leukemia
[29] = system: NCI-H226 lung
[30] = system: NCI-H23 lung
[31] = system: NCI-H522 lung
[32] = system: NCI/ADR-RES ovarian
[33] = system: OVCAR-3 ovarian
[34] = system: OVCAR-4 ovarian
[35] = system: OVCAR-5 ovarian
[36] = system: OVCAR-8 ovarian
[37] = system: PC-3 prostate
[38] = system: RPMI-8226 leukemia
[39] = system: SF-268 CNS
[40] = system: SF-295 CNS
[41] = system: SF-539 CNS
[42] = system: SK-MEL-2 melanoma
[43] = system: SK-MEL-28 melanoma
[44] = system: SK-MEL-5 melanoma
[45] = system: SK-OV-3 ovarian
[46] = system: SN12C renal
[47] = system: SNB-19 CNS
[48] = system: SR leukemia
[49] = system: SW-620 colon
[50] = system: T-47D breast
[51] = system: TK-10 renal
[52] = system: U251 CNS
[53] = system: UACC-257 melanoma
[54] = system: UACC-62 melanoma
[55] = system: UO-31 renal
[56] = system: HCC-2998 colon
[57] = system: NCI-H460 lung
[58] = system: SNB-75 CNS
[59] = system: RXF 393 renal

CCC(C)C(NC(=O)C1CCCN1)C(=O)NC(C(=O)NCC(=O)NC(CC(N)=O)C(=O)NC(CC(C)C)C(=O)NC(CC(C)C)C(=O)NC(CCCCN)C(N)=O)C(C)C (centres undefined) (H-PIVGNLLK-NH2; configuration not given here)
TGI [1]: > 75 µM
TGI [2]: > 75 µM
TGI [3]: > 75 µM
TGI [4]: > 75 µM
TGI [5]: > 75 µM
TGI [6]: > 75 µM
TGI [7]: > 75 µM
TGI [8]: > 75 µM
TGI [9]: > 75 µM
TGI [10]: > 75 µM
TGI [11]: > 75 µM
TGI [12]: > 75 µM
TGI [13]: > 75 µM
TGI [14]: > 75 µM
TGI [15]: > 75 µM
TGI [16]: > 75 µM
TGI [17]: > 75 µM
TGI [18]: > 75 µM
TGI [19]: > 75 µM
TGI [20]: > 75 µM
TGI [21]: > 75 µM
TGI [22]: > 75 µM
TGI [23]: > 75 µM
TGI [24]: > 75 µM
TGI [25]: > 75 µM
TGI [26]: > 75 µM
TGI [27]: > 75 µM
TGI [28]: > 75 µM
TGI [29]: > 75 µM
TGI [30]: > 75 µM
TGI [31]: > 75 µM
TGI [32]: > 75 µM
TGI [33]: > 75 µM
TGI [34]: > 75 µM
TGI [35]: > 75 µM
TGI [36]: > 75 µM
TGI [37]: > 75 µM
TGI [38]: > 75 µM
TGI [39]: > 75 µM
TGI [40]: > 75 µM
TGI [41]: > 75 µM
TGI [42]: > 75 µM
TGI [43]: > 75 µM
TGI [44]: > 75 µM
TGI [45]: > 75 µM
TGI [46]: > 75 µM
TGI [47]: > 75 µM
TGI [48]: > 75 µM
TGI [49]: > 75 µM
TGI [50]: > 75 µM
TGI [51]: > 75 µM
TGI [52]: > 75 µM
TGI [53]: > 75 µM
TGI [54]: > 75 µM
TGI [55]: > 75 µM

O=c1oc2ccccc2c(O)c1C(c1ccc(O)cc1)c1c(O)c2ccccc2oc1=O
TGI [1]: > 100 µM
TGI [2]: > 100 µM
TGI [4]: > 100 µM
TGI [5]: > 100 µM
TGI [6]: > 100 µM
TGI [7]: > 100 µM
TGI [8]: > 100 µM
TGI [9]: > 100 µM
TGI [10]: > 100 µM
TGI [56]: > 100 µM
TGI [11]: > 100 µM
TGI [12]: > 100 µM
TGI [14]: > 100 µM
TGI [15]: > 100 µM
TGI [16]: > 100 µM
TGI [17]: > 100 µM
TGI [18]: > 100 µM
TGI [20]: > 100 µM
TGI [21]: > 100 µM
TGI [23]: > 100 µM
TGI [25]: 77.7 µM
TGI [26]: > 100 µM
TGI [27]: > 100 µM
TGI [29]: > 100 µM
TGI [30]: > 100 µM
TGI [57]: > 100 µM
TGI [31]: 62.8 µM
TGI [32]: > 100 µM
TGI [33]: > 100 µM
TGI [34]: > 100 µM
TGI [36]: > 100 µM
TGI [37]: > 100 µM
TGI [39]: 67.2 µM
TGI [42]: > 100 µM
TGI [43]: > 100 µM
TGI [44]: > 100 µM
TGI [46]: > 100 µM
TGI [47]: > 100 µM
TGI [58]: 97.8 µM
TGI [49]: > 100 µM
TGI [50]: > 100 µM
TGI [51]: > 100 µM
TGI [52]: > 100 µM
TGI [53]: > 100 µM
TGI [54]: > 100 µM
TGI [55]: > 100 µM

O=C(O)c1cc(Nc2c(O)c3c(c(O)c2Cl)C(=O)C=CC3=O)ccc1O
TGI [1]: > 10 µM
TGI [2]: > 10 µM
TGI [3]: > 10 µM
TGI [4]: > 10 µM
TGI [5]: > 10 µM
TGI [6]: > 10 µM
TGI [7]: > 10 µM
TGI [8]: > 10 µM
TGI [9]: > 10 µM
TGI [10]: > 10 µM
TGI [56]: > 10 µM
TGI [11]: > 10 µM
TGI [12]: > 10 µM
TGI [14]: > 10 µM
TGI [15]: > 10 µM
TGI [16]: > 10 µM
TGI [17]: > 10 µM
TGI [18]: > 10 µM
TGI [19]: > 10 µM
TGI [20]: > 10 µM
TGI [21]: > 10 µM
TGI [22]: > 10 µM
TGI [23]: > 10 µM
TGI [24]: > 10 µM
TGI [25]: > 10 µM
TGI [26]: > 10 µM
TGI [27]: > 10 µM
TGI [28]: > 10 µM
TGI [29]: > 10 µM
TGI [30]: > 10 µM
TGI [57]: > 10 µM
TGI [32]: > 10 µM
TGI [33]: > 10 µM
TGI [34]: > 10 µM
TGI [35]: > 10 µM
TGI [36]: > 10 µM
TGI [37]: > 10 µM
TGI [39]: > 10 µM
TGI [40]: > 10 µM
TGI [41]: > 10 µM
TGI [43]: > 10 µM
TGI [44]: > 10 µM
TGI [45]: > 10 µM
TGI [46]: > 10 µM
TGI [47]: > 10 µM
TGI [58]: > 10 µM
TGI [49]: > 10 µM
TGI [50]: > 10 µM
TGI [51]: > 10 µM
TGI [52]: > 10 µM
TGI [53]: > 10 µM
TGI [54]: > 10 µM
TGI [55]: > 10 µM

O=C1CCc2cc3c(cc21)C(C(=O)O)CC3 (centres undefined)
TGI [1]: > 100 µM
TGI [3]: > 100 µM
TGI [4]: > 100 µM
TGI [5]: > 100 µM
TGI [6]: > 100 µM
TGI [7]: > 100 µM
TGI [8]: > 100 µM
TGI [9]: > 100 µM
TGI [10]: > 100 µM
TGI [56]: > 100 µM
TGI [11]: > 100 µM
TGI [12]: > 100 µM
TGI [13]: > 100 µM
TGI [14]: > 100 µM
TGI [16]: > 100 µM
TGI [17]: > 100 µM
TGI [18]: > 100 µM
TGI [19]: > 100 µM
TGI [20]: > 100 µM
TGI [21]: > 100 µM
TGI [22]: > 100 µM
TGI [23]: > 100 µM
TGI [24]: > 100 µM
TGI [25]: > 100 µM
TGI [27]: > 100 µM
TGI [28]: > 100 µM
TGI [29]: > 100 µM
TGI [30]: > 100 µM
TGI [57]: > 100 µM
TGI [31]: > 100 µM
TGI [32]: > 100 µM
TGI [34]: > 100 µM
TGI [35]: > 100 µM
TGI [36]: > 100 µM
TGI [37]: > 100 µM
TGI [38]: > 100 µM
TGI [59]: > 100 µM
TGI [39]: > 100 µM
TGI [40]: > 100 µM
TGI [41]: > 100 µM
TGI [42]: > 100 µM
TGI [43]: > 100 µM
TGI [44]: > 100 µM
TGI [45]: > 100 µM
TGI [46]: > 100 µM
TGI [47]: > 100 µM
TGI [58]: > 100 µM
TGI [48]: > 100 µM
TGI [49]: > 100 µM
TGI [50]: > 100 µM
TGI [51]: > 100 µM
TGI [52]: > 100 µM
TGI [53]: > 100 µM
TGI [54]: > 100 µM
TGI [55]: > 100 µM
